US20140030368A1, “COMPOSITION FOR PREVENTING OR TREATING A RESPIRATORY DISEASE CONTAINING A MIXED HERBAL EXTRACT OF CNIDIUM OFFICINALE ROOT AND POLYGONI CUSPIDATI ROOT” (WHANIN PHARMACEUTICAL CO., LTD., priority 2011, published 2014)

Key:
[1] = system: IP-10 (interferon-gamma inducible protein-10); assay: Inflammatory mediator in bronchoalveolar lavage, LPS-induced asthma/COPD model (ELISA); type: in vivo, mice; details: ovalbumin + LPS model
Description: In order to examine whether the extract of the present invention has the effect of inhibiting inflammatory mediators in a bronchoalveolar lavage in an LPS-induced asthma/chronic obstructive pulmonary disease model, the expression pattern of the inflammatory mediator IP-10 (interferon-gamma inducible protein-10) in the bronchoalveolar lavage obtained in Test Example 7-2 was measured using an ELISA assay, and the results of the measurement are shown in Table 10 below.

[2] = system: co-stimulatory molecules CD40, CD80, CD86 and MHCII; assay: Co-stimulatory molecules in lung dendritic cells, E. coli-EV-induced model (FACS); type: in vivo, mice; details: 1 mg/kg twice a day, FIG. 5
Description: In order to examine whether the extract of the present invention has the effect of inhibiting the expression of co-stimulatory molecules in dendritic cells isolated from the lung tissue of an E. coli-EV-induced asthma/chronic obstructive pulmonary disease model, the following test was performed.
Specifically, a portion of the lung tissue obtained in Test Example 8-4 was cut finely with a blade, and then incubated with 5 ml of 1× Trypsin-EDTA and 1000 units of collagenase at 37 °C for 10 minutes. Then, the tissue was passed through a 100 μm mesh to collect only immune cells, and the cells were double-stained with each of the dendritic cell marker CD11c and the co-stimulatory molecules CD40, CD80, CD86 and MHCII (major histocompatibility complex II). Next, the expression levels of the co-stimulatory molecules in the dendritic cells were measured using FACS (fluorescence activated cell sorter), and the results of the measurement are shown in FIG. 5.

[3] = system: airway constriction of the sensitized guinea pigs; assay: Test for airway constriction inhibition (in vivo), airway resistance AUC after ovalbumin aerosol; details: oral dose 10 mg/kg
5-lipoxygenase = target: T1, 5-lipoxygenase (Rattus norvegicus, UniProt P12527); assay: 5-Lipoxygenase inhibitory activity (leukotriene production in RBL-1 cells, cysteinyl leukotriene EIA); type: cell-based; details: 2 μM; RBL-1 cells; read-out: 5-lipoxygenase inhibition rate(%)
T1 construct: rat basophilic leukemia cells (RBL-1) were stabilized using serum-free RPMI medium; endogenous in cells; host or cells: RBL-1 (rat basophilic leukemia cells)
T1 sequence (P12527 whole entry): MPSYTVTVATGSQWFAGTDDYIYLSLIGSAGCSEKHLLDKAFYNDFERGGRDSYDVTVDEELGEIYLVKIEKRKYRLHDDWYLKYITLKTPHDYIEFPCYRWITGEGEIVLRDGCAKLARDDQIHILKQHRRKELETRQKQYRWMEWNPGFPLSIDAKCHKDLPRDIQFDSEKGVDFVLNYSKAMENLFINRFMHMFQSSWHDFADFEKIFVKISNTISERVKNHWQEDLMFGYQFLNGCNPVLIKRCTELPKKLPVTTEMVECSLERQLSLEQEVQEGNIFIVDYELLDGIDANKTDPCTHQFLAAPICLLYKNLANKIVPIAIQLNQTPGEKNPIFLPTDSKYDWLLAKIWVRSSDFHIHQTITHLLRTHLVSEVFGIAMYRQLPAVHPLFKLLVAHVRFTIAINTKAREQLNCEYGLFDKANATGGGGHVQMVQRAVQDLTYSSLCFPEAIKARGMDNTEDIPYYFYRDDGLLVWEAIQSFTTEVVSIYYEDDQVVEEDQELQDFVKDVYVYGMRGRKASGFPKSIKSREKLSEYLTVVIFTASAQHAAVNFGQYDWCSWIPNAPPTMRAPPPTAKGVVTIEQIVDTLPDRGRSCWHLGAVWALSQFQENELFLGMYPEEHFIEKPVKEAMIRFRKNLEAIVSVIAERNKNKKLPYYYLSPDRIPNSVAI
Description: Specifically, rat basophilic leukemia cells (RBL-1) were stabilized using serum-free RPMI medium at 37° C., and each of the extracts and arachidonic acid as a substrate were added thereto and incubated for 15 minutes to produce leukotriene. The amount of the produced leukotriene was measured using a cysteinyl leukotriene EIA kit. As comparative drugs, the 5-lipoxygenase inhibitors zileuton and montelukast were used.

Which results are given for `C[C@@H]1C[C@H]2[C@@H]3CCC4=CC(=O)C=C[C@]4(C)[C@@]3(F)[C@@H](O)C[C@]2(C)[C@@]1(O)C(=O)CO` [Dexamethason, dexamethason]?
IP-10 inhibition rate (%) ([1]; 1 mg/kg b.i.d.): 4.09%; expression levels of the co-stimulatory molecules in the dendritic cells [2]: a decrease in the expression of CD86 and MHCII

With `CC(C)(O)c1ccccc1CC[C@@H](SCC1(CC(=O)O)CC1)c1cccc(/C=C/c2ccc3ccc(Cl)cc3n2)c1` [montelukast] as the compound, how does the “IP-10 inhibition rate (%)” value ([1]; 10 mg/kg b.i.d.) read?
Its value is 1.80%.

And the “Airway constriction inhibition rate (%)” value [3]?
The value was 53%.

What about the inhibition at 2 µM (5-lipoxygenase) of the same compound?
Its inhibition at 2 µM is 45%.
